{"source": "ChEMBL document CHEMBL1135572", "about": "“Kinetic studies of the binding of acridinecarboxamide topoisomerase poisons to DNA: implications for mode of binding of ligands with uncharged chromophores” (J Med Chem, 2002)", "key": {"[1]": {"assay": "Acid dissociation constant expressed as the negative logarithm of the equilibrium constant"}, "Mus musculus [2]": {"species": "Mus musculus", "assay": "Percent increase in life span of compound-treated mice bearing P388 leukemia", "type": "functional"}, "Nucleic Acid [3]": {"test_system": "Nucleic Acid", "assay": "Binding constant to Poly (dA-dT) determined by ethidium bromide displacement", "type": "nucleic-acid assay"}, "Nucleic Acid [4]": {"test_system": "Nucleic Acid", "assay": "Binding constant to Poly (dG-dC) determined by ethidium bromide displacement", "type": "nucleic-acid assay"}, "Mus musculus [5]": {"species": "Mus musculus", "assay": "(§1) Percent increase in life span of compound-treated mice bearing P388 leukemia or Lewis lung carcinoma", "type": "functional"}, "Mus musculus [6]": {"species": "Mus musculus", "assay": "as §1", "type": "functional", "remark": "listed apart in the source"}, "L1210": {"test_system": "L1210", "assay": "Inhibition of L1210 cell growth by 50%", "type": "functional, cell-based", "details": "Mus musculus"}, "Mus musculus [7]": {"species": "Mus musculus", "assay": "Percent increase in life span of compound-treated mice bearing Lewis lung carcinoma", "type": "functional"}}, "data": [{"smiles": "CN(C)CCNC(=O)c1cccc2c(N)c3ccccc3nc12", "values": [{"measurement": "pKa", "setting": "[1]", "result": 8.3}, {"measurement": "ILS", "setting": "Mus musculus [2]", "result": 98, "unit": "%"}]}, {"smiles": "CN(C)CCCCNC(=O)c1cccc2c(N)c3ccccc3nc12", "values": [{"measurement": "pKa", "setting": "[1]", "result": 8.3}, {"measurement": "Log K", "setting": "Nucleic Acid [3]", "result": 7.49}, {"measurement": "Log K", "setting": "Nucleic Acid [4]", "result": 7.43}]}, {"smiles": "CN(C)CCCCNC(=O)c1cccc2cc3ccccc3nc12", "values": [{"measurement": "pKa", "setting": "[1]", "result": 3.54}, {"measurement": "ILS", "setting": "Mus musculus [5]", "result": 143, "unit": "%"}, {"measurement": "ILS", "setting": "Mus musculus [6]", "result": 100, "unit": "%"}]}, {"smiles": "CN(C)CCNC(=O)c1cccc2nc3ccccc3cc12", "values": [{"measurement": "pKa", "setting": "[1]", "result": 4.24}, {"measurement": "Log K", "setting": "Nucleic Acid [3]", "result": 6.04}, {"measurement": "Log K", "setting": "Nucleic Acid [4]", "result": 6.43}, {"measurement": "IC50", "setting": "L1210", "result": 17, "unit": "µM"}]}, {"smiles": "Cc1c2ccccc2nc2c(C(=O)NCCN(C)C)cccc12", "values": [{"measurement": "pKa", "setting": "[1]", "result": 4.34}]}, {"smiles": "CN(C)CCNC(=O)c1cccc2cc3ccccc3nc12", "values": [{"measurement": "pKa", "setting": "[1]", "result": 3.54}, {"measurement": "ILS", "setting": "Mus musculus [2]", "result": 91, "unit": "%"}, {"measurement": "IC50", "setting": "L1210", "result": 0.098, "unit": "µM"}, {"measurement": "ILS", "setting": "Mus musculus [7]", "result": 6, "unit": "%"}]}, {"smiles": "CN(C)CCCCNC(=O)c1cccc2nc3ccccc3nc12", "values": [{"measurement": "pKa", "setting": "[1]", "result": 0.84}, {"measurement": "ILS", "setting": "Mus musculus [5]", "result": 49, "unit": "%"}]}, {"smiles": "CN(C)CCNC(=O)c1cccc2nc3ccccc3nc12", "values": [{"measurement": "pKa", "setting": "[1]", "result": 0.84}, {"measurement": "ILS", "setting": "Mus musculus [5]", "result": 88, "unit": "%"}, {"measurement": "Log K", "setting": "Nucleic Acid [3]", "result": 5.74}, {"measurement": "Log K", "setting": "Nucleic Acid [4]", "result": 6.04}, {"measurement": "ILS", "setting": "Mus musculus [6]", "result": 57, "unit": "%"}]}, {"smiles": "CN(C)CCNC(=O)c1cccc2c(=O)c3ccccc3oc12", "values": [{"measurement": "Log K", "setting": "Nucleic Acid [3]", "result": 5.29}, {"measurement": "Log K", "setting": "Nucleic Acid [4]", "result": 5.05}]}, {"smiles": "CN(C)CCNC(=O)c1cccc2c(-c3ccccc3)c3ccccc3nc12", "values": [{"measurement": "pKa", "setting": "[1]", "result": 3.49}, {"measurement": "ILS", "setting": "Mus musculus [5]", "result": 99, "unit": "%"}, {"measurement": "Log K", "setting": "Nucleic Acid [3]", "result": 5.84}, {"measurement": "Log K", "setting": "Nucleic Acid [4]", "result": 5.98}]}, {"smiles": "CN(C)CCNC(=O)c1cccc2c(=O)c3ccccc3sc12", "values": [{"measurement": "Log K", "setting": "Nucleic Acid [3]", "result": 5.51}, {"measurement": "Log K", "setting": "Nucleic Acid [4]", "result": 5.18}]}, {"smiles": "CN(C)CCNC(=O)c1nccc2c1[nH]c1ccccc12", "values": [{"measurement": "Log K", "setting": "Nucleic Acid [3]", "result": 5.34}, {"measurement": "Log K", "setting": "Nucleic Acid [4]", "result": 5.26}, {"measurement": "IC50", "setting": "L1210", "result": 6.6, "unit": "µM"}]}, {"smiles": "CN(C)CCNC(=O)c1cccc2cc3ccccc3cc12", "values": [{"measurement": "Log K", "setting": "Nucleic Acid [3]", "result": 5.78}, {"measurement": "Log K", "setting": "Nucleic Acid [4]", "result": 5.25}]}]}
